In patent publication US20250092017A1, “2-PIPERIDYL OR 2-PYRAZOLYL SUBSTITUTED PYRIMIDINE COMPOUND SERVING AS EGFR INHIBITOR” (SUZHOU PUHE BIOPHARMA CO., LTD., priority 2022, published 2025):

Legend:
[1] = target: EGFR (wild-type) (Homo sapiens, UniProt P00533); test: MSA (Mobility Shift Assay) kinase activity, EGFR wild type; type: biochemical; details: read-out: EGFR wt/ IC50/nM
Protocol: (§1) The MSA (Mobility Shift Assay) method was used to detect the effects of small molecule inhibitors on the kinase activity of EGFR wild type and its mutants (EGFR^wt, EGFR-L858R, EGFR-L858R-T790M-C797S, EGFR-L858R-C797S).
(§2) 10 μL of kinase solution at 2.5 times the final concentration was added to the compound wells and positive control Max wells; 10 μL of 1x kinase buffer was added to the negative control Min wells. The mixture was centrifuged at 1000 rpm for 30 seconds, and the reaction plate was shaken to mix the solution well and then incubated at room temperature for 10 minutes. A mixed solution of ATP and kinase substrate at 5/3 times the final concentration was prepared in 1x kinase buffer. 15 μL of a mixed solution of ATP and substrate at 5/3 times the final concentration was added to initiate the reaction. The 384-well plate was centrifuged at 1000 rpm for 30 seconds, and shaken to mix the solution well and then incubated at room temperature for the corresponding time. 30 μL of stop detection solution was added to stop the kinase reaction, and the mixture was centrifuged at 1000 rpm for 30 seconds, and then to mixed well by shaking. The conversion rate was read using Caliper EZ Reader.
(§3) wherein: Conversion %_sample is the conversion rate reading of the sample; Conversion %_min is the mean of the negative control wells, representing the conversion rate reading of the wells without enzyme activity; Conversion %_max is the mean of the positive control wells, representing the conversion rate reading of the wells without compound inhibition.
(§4) The log (inhibitor) vs. response —Variable slope of the analysis software GraphPad Prism 5 was used to fit the dose-effect curve, where the log value of the concentration was used as the X-axis and the percentage inhibition rate was used as the Y-axis, to obtain the IC50 value of each compound on the enzyme activity.
(§5) The calculation formula is Y=Bottom+(Top-Bottom)/(1+10^((Log IC50−X)*Hill Slope))

[2] = target: EGFR (L858R) (Homo sapiens, UniProt P00533, L858R); test: MSA (Mobility Shift Assay) kinase activity, EGFR-L858R; type: biochemical
Sequence of EGFR (L858R) (P00533 25-1210 L858R): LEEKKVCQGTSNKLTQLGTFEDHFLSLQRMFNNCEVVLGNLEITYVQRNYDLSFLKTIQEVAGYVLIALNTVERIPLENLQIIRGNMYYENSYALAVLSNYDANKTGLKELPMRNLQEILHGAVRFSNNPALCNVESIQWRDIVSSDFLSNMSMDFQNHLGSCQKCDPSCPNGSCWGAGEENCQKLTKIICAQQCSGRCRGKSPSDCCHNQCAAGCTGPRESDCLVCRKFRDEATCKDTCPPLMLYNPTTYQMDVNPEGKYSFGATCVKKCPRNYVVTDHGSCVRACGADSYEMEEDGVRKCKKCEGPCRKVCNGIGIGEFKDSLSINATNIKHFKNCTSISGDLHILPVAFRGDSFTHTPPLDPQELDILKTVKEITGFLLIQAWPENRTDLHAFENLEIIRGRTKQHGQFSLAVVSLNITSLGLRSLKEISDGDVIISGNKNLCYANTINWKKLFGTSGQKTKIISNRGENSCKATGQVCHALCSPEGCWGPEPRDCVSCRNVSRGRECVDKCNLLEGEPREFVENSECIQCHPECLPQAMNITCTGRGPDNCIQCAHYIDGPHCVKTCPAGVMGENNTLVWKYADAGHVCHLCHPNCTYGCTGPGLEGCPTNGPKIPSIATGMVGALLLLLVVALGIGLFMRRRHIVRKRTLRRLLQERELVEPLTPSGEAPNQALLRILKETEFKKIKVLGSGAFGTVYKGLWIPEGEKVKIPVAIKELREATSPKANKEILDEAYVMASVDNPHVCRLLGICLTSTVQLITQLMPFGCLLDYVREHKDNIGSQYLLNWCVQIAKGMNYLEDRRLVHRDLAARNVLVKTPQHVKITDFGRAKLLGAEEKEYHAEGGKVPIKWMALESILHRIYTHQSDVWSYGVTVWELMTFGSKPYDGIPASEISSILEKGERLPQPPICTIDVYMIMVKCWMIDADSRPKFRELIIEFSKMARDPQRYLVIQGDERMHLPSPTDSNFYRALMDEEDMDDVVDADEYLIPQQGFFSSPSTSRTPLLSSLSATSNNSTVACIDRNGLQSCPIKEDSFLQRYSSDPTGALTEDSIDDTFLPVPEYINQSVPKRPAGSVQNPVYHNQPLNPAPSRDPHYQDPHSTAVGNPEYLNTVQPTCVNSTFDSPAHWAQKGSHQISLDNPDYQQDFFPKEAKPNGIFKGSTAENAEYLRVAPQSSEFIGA
Protocol: as §1, §2, §3, §4, §5

[3] = target: EGFR (L858R/T790M/C797S) (Homo sapiens, UniProt P00533, C797S/L858R/T790M); test: MSA (Mobility Shift Assay) kinase activity, EGFR-L858R-T790M-C797S; type: biochemical
Protocol: as §1, §2, §3, §4, §5

[4] = target: EGFR (L858R/C797S) (Homo sapiens, UniProt P00533, C797S/L858R); test: MSA (Mobility Shift Assay) kinase activity, EGFR-L858R-C797S; type: biochemical
Sequence of EGFR (L858R/C797S) (P00533 25-1210 C797S/L858R): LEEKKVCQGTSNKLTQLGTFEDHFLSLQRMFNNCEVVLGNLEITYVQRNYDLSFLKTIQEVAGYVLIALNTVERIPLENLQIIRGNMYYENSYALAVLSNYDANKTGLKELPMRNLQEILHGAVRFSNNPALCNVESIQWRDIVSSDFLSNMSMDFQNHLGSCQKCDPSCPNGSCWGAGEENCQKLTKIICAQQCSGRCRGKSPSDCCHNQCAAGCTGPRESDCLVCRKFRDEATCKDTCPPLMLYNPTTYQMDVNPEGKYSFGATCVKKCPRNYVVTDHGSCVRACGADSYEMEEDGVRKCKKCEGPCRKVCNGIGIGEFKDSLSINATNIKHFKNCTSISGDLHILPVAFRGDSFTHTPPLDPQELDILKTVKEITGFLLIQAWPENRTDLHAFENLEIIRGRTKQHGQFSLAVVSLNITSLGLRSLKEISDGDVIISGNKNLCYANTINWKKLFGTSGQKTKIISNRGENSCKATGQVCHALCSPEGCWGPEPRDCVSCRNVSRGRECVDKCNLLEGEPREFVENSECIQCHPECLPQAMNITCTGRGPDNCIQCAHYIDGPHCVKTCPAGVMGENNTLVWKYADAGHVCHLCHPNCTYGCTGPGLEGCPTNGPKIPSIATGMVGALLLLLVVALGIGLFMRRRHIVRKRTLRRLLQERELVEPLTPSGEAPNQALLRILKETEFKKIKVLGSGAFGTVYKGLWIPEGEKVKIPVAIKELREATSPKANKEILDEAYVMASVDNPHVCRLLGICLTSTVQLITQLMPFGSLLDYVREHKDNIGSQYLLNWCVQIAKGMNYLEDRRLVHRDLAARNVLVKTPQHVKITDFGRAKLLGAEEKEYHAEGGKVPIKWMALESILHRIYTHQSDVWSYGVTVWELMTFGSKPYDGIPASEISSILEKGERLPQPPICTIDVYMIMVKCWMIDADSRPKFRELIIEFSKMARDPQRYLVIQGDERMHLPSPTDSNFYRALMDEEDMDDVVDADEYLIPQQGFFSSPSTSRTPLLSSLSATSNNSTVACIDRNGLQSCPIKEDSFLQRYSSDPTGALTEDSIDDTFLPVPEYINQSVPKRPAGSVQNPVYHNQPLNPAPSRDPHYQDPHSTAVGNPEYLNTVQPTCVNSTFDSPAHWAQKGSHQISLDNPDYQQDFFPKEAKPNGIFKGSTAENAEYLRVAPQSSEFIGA
Protocol: as §1, §2, §3, §4, §5

[5] = target: Ba/F3-FL-EGFR-L858R-T790M-C797S (Homo sapiens, UniProt P00533, T790M/C797S/L858R, cells depend on it); test: CellTiter-Glo proliferation, Ba/F3-FL-EGFR-L858R-T790M-C797S; type: cell-based; details: 72 hours, read-out: Ba/F3-FL-EGFR-L858R-T790M-C797S IC50/nM
Protocol: (§6) Promega CellTiter-Glo reagent was used to detect the effects of small molecule inhibitors on the proliferation of five Ba/F3 cell lines (Ba/F3-FL-EGFR, Ba/F3-FL-EGFR-L858R, Ba/F3-FL-EGFR-L858R-T790M-C797S, Ba/F3-TEL-EGFR-L858R-C797S and Ba/F3-FL-EGFR-del19-C797S).
(§7) The cell lines were cultured in an incubator at 37° C. and 5% CO2. Cells were passaged regularly and cells in the logarithmic phase were used for plating. 95 μL of cell suspension was added to each well of the cell plate, and culture medium without cells (containing 0.1% DMSO) was added to the Min control wells. Substance addition for compound detection cell plate: 5 μL of 20× compound working solution was added to the cell culture plate as shown in the table below. 50 μL of DMSO-cell culture medium mixture was added to the Max control, with the final DMSO concentration of 0.1%. 5 μL of DMSO-cell culture medium mixture was added to the Max control. The final DMSO concentration was 0.1%.
(§8) The compounds to be tested were added as per the table below
(§9) Cell viability was detected by CellTiter-Glo luminescence assay. Data analysis:
(§10) The cell proliferation inhibition rate (Inhibition Rate) data was processed using the following formula: […]
(§11) wherein: RLUDrug represents the relative luminescence unit of the cells with the addition of drug, RLUMin represents the luminescence unit of the culture medium, and RLUMax represents the relative luminescence unit of the cells with the addition of DMSO.
(§12) The inhibition rates corresponding to different concentrations of compounds were calculated in EXCEL, and then the inhibition rate curve was plotted using GraphPad Prism software and related parameters including the maximum and minimum inhibition rates of cells and IC50 values were calculated.

[6] = test system: Ba/F3-FL-EGFR-del19-C797S; test: CellTiter-Glo proliferation, Ba/F3-FL-EGFR-del19-C797S; type: cell-based; details: 72 h, proliferation, 72 hours, CellTiter-Glo; read-out: Ba/F3-FL-EGFR-del19-C797S IC50/nM
Protocol: as §6, §7, §8, §9, §10, §11, §12

[7] = target: T1, Ba/F3-TEL-EGFR-L858R-C797S (Homo sapiens, UniProt P00533, C797S/L858R, cells depend on it); test: CellTiter-Glo proliferation, Ba/F3-TEL-EGFR-L858R-C797S; type: cell-based; details: 72 hours, read-out: Ba/F3-TEL-EGFR-L858R-C797S IC50/nM
T1 construct: fused on or other part: N-terminal TEL (ETV6) oligomerising part fused to the EGFR intracellular/kinase part; P41212 (Transcription factor ETV6)
Protocol: as §6, §7, §8, §9, §10, §11, §12

[8] = target: Ba/F3-FL-EGFR-L858R (Homo sapiens, UniProt P00533, L858R, cells depend on it); test: CellTiter-Glo proliferation, Ba/F3-FL-EGFR-L858R; type: cell-based; details: 72 hours, read-out: Ba/F3-FL-EGFR-L858R IC50/nM
Sequence of Ba/F3-FL-EGFR-L858R (P00533 whole entry L858R): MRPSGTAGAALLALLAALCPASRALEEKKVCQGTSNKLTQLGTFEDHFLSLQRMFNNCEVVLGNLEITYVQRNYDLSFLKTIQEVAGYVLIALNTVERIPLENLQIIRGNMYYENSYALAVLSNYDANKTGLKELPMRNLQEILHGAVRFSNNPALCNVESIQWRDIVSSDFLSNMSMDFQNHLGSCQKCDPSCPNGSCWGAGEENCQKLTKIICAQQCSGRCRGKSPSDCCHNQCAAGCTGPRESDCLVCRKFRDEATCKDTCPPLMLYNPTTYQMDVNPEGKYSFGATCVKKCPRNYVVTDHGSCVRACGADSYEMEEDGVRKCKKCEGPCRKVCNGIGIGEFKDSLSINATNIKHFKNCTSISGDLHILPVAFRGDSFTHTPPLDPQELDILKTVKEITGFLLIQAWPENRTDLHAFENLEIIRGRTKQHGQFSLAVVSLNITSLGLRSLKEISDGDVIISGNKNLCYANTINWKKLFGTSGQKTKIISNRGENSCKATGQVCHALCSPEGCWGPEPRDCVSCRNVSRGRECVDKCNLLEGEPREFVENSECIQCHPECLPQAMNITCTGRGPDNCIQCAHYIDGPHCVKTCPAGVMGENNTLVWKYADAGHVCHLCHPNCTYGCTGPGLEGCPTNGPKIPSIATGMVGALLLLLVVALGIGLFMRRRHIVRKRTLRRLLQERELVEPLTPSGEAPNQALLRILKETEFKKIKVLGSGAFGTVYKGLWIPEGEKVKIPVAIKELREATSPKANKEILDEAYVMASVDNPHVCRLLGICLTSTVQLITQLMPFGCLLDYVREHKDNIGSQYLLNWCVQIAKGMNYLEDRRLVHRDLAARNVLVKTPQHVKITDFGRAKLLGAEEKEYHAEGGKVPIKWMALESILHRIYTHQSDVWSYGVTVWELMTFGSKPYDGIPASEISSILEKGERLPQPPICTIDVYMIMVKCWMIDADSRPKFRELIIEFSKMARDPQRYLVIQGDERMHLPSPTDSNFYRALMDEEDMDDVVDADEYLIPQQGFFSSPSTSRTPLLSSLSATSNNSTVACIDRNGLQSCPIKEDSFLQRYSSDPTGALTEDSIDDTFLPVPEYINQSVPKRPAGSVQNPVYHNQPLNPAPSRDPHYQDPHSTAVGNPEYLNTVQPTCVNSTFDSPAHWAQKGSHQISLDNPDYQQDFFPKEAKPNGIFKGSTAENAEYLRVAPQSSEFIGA
Protocol: as §6, §7, §8, §9, §10, §11, §12

[9] = target: T2, Ba/F3-FL-EGFR (Homo sapiens, UniProt P00533); test: CellTiter-Glo proliferation, Ba/F3-FL-EGFR; type: cell-based; details: 72 hours, read-out: Ba/F3-FL-EGFR IC50/nM
T2 construct: FL read as full length
Protocol: as §6, §7, §8, §9, §10, §11, §12

Sequence of EGFR (wild-type) (P00533 25-1210): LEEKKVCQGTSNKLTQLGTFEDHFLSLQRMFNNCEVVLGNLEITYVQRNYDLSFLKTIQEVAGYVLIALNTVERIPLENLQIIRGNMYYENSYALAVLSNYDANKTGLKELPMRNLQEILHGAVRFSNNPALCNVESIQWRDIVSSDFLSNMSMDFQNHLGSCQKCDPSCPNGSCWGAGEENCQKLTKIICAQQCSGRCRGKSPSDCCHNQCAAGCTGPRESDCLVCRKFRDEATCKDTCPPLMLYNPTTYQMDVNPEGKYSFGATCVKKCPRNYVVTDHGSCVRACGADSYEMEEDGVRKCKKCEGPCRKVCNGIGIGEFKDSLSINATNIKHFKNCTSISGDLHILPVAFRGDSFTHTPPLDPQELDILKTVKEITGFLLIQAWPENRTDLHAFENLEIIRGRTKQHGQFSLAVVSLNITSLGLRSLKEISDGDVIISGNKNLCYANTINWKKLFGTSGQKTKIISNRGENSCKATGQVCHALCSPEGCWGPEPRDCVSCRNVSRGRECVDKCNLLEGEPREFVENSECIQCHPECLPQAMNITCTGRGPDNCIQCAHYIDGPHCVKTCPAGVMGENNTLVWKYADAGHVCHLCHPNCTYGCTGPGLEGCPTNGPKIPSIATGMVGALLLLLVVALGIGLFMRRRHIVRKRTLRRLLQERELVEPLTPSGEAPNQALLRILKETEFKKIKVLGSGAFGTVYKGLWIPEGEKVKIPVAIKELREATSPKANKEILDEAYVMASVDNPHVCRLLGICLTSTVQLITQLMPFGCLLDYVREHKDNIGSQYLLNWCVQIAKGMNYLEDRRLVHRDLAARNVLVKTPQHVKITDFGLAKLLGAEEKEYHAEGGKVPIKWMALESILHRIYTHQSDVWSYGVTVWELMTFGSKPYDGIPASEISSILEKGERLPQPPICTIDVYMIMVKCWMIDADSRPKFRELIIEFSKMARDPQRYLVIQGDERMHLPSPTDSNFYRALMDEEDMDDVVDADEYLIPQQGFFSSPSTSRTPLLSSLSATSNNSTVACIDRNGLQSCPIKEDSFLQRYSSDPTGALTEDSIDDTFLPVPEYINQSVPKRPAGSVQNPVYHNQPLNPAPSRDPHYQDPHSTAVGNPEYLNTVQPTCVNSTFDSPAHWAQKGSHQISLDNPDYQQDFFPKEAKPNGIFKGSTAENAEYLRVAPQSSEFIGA

| SMILES | IC50 [1] | IC50 [2] | IC50 [3] | IC50 [4] | GI50 [5] | IC50 [6] | GI50 [7] | GI50 [8] | GI50 [9] |
| --- | --- | --- | --- | --- | --- | --- | --- | --- | --- |
| CC(C)c1ccc(N2CC(NS(C)(=O)=O)C2)c2cnc(Nc3ccnc(N4CCC(O)CC4)c3)nc12 [Compound P6] | > 100 nM | 45.2 nM | 6.1 nM | 89.8 nM |  |  |  |  |  |
| CC(C)c1ccc(N2CC3(CC(S(C)(=O)=O)C3)C2)c2cnc(Nc3ccnc(N4CCC(O)C(F)C4)n3)cc12 (stereo not shown) [Compound P2] | > 100 nM | 43 nM | 6.7 nM | > 100 nM |  |  |  |  |  |
| CC(C)c1ccc(N2CC3(C2)CN(S(C)(=O)=O)C3)c2cnc(Nc3ccnc(N4CCC(O)C(F)C4)n3)cc12 (stereo not shown) [Compound P11] | > 100 nM | > 100 nM | 4.8 nM | > 100 nM |  |  |  |  |  |
| CC(C)c1ccc(N2CC(NC(=O)N(C)C)C2)c2cnc(Nc3ccnc(N4CCC(O)C(F)C4)n3)cc12 (stereo not shown) [Compound P10] | > 100 nM | 43.2 nM | 0.56 nM | 41 nM |  |  |  |  |  |
| CC(C)c1ccc(N2CC(c3cscn3)C2)c2cnc(Nc3ccnc(N4CCC(O)C(F)C4)n3)cc12 (stereo not shown) [Compound P18] | > 100 nM |  | 9.9 nM | > 100 nM |  |  |  |  |  |
| CC(C)c1ccc(N2CC(CS(C)(=O)=O)C2)c2cnc(Nc3ccnc(-c4cnn(S(=O)(=O)CC5CC5)c4)n3)cc12 [Compound H14] |  |  |  |  | 136 nM | 34 nM | 28 nM | 71 nM | 721 nM |
| CCn1cc(-c2nccc(Nc3cc4c(C(C)C)ccc(N5CC(CS(C)(=O)=O)C5)c4cn3)n2)cn1 [Compound H27] |  |  |  |  | 322 nM | 53 nM | 21 nM | 49 nM | > 10000 nM |
| CC(C)OCCS(=O)(=O)n1cc(-c2nccc(Nc3cc4c(C(C)C)ccc(N5C[C@H](CS(C)(=O)=O)[C@H]5C)c4cn3)n2)cn1 [Compound H32] |  |  |  |  | 397 nM | 340 nM | 226 nM | 510 nM | 3290 nM |
| CC(C)c1cc(C#N)c(N2CC(CS(C)(=O)=O)C2)c2cnc(Nc3ccnc(N4CCC(O)C(F)C4)n3)cc12 (stereo not shown) [Compound P16] | > 100 nM |  | 0.28 nM | 24.1 nM |  |  |  |  |  |

The remaining lines, values ahead:

| IC50 [1] | IC50 [2] | IC50 [3] | IC50 [4] | GI50 [5] | IC50 [6] | GI50 [7] | GI50 [8] | GI50 [9] | SMILES |
| --- | --- | --- | --- | --- | --- | --- | --- | --- | --- |
| > 100 nM | > 100 nM | 3.2 nM | > 100 nM |  |  |  |  |  | CC(C)c1ccc(N2CC(c3ccc[nH]c3=O)C2)c2cnc(Nc3ccnc(N4CCC(O)C(F)C4)n3)cc12 (stereo not shown) [Compound P22] |
|  |  |  |  | 5.6 nM | 142 nM | 9.8 nM | 36 nM | 593 nM | CCS(=O)(=O)N(C)[C@H]1CN(c2ccc(C(C)C)c3cc(Nc4ccnc(N5CCC(OC)C(F)C5)n4)ncc23)[C@@H]1C (stereo partly shown) [Compound P43] |
|  |  |  |  | 8.9 nM | 123 nM | 16 nM | 22 nM | 565 nM | CCCS(=O)(=O)N[C@H]1CN(c2ccc(C(C)C)c3cc(Nc4ccnc(N5CCC(OC)C(F)C5)n4)ncc23)[C@@H]1C (stereo partly shown) [Compound P32] |
|  |  |  |  | 5.4 nM | 76 nM | 7 nM | 15 nM | 540 nM | COC1CCN(c2nccc(Nc3cc4c(C(C)C)ccc(N5C[C@H](NS(C)(=O)=O)[C@H]5C)c4cn3)n2)CC1F (stereo partly shown) [Compound P38] |
| 41.2 nM |  | 0.13 nM | 10.4 nM | 57 nM | 283 nM | 63 nM | 128 nM | 3440 nM | COC1CCN(c2nccc(Nc3cc4c(cn3)c(N3CC(CS(C)(=O)=O)C3)cc(=O)n4C(C)C)n2)CC1F (stereo not shown) [Compound P24] |
